Measured values as given in US11000033B2, “Ketone or oxime compound, and herbicide” (NISSAN CHEMICAL CORPORATION, priority 2014, dated 2021).

Experiments:
Format in all cases: in vivo
[1] = tested on: rice; experiment: Test Example 4: effect on crop by soil treatment (symbol b); settings: for b: directly sowed rice plant, effect grade on crop: 320 g/ha; for b: directly sowed rice plant, effect on crop grade: application herbicide amount 320 g/ha
Procedure, shortened: (§1)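 Crop seed is sown in spots together with several weed species in a box of sterilized diluvial soil. It is covered by about 1.5 cm of soil and kept in a greenhouse held between 25° C. and 30° C.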

[2] = tested on: Alopecurus myosuroides; experiment: Test Example 4: herbicidal effect by soil treatment (symbol J)
Procedure, shortened: (§2)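 Seeds were sown in sterilized diluvial soil, covered with about 1.5 cm of soil, and the soil surface was sprayed with a water-diluted emulsion of the compound at a predetermined rate. Plants grew in a greenhouse at 25° C. to 30° C.; effects were scored visually 3 weeks after application.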

[3] = tested on: Echinochloa crus-galli var. crus-galli; experiment: Test Example 5: herbicidal effect by foliage application, plastic box (symbol H); settings: 320 g/ha, 3 weeks after application
Procedure, shortened: (§3)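 Emulsion formulation, diluted with water to the intended rate, was applied uniformly to leaves by small sprayer. Recipients were 14-day greenhouse-grown seedlings (25° C. to 30° C.). Assessment followed at 3 weeks.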

[4] = tested on: soybean; experiment: Test Example 4: effect on crop by soil treatment (symbol d); settings: for d: soybean, effect grade on crop: 320 g/ha; for d: soybean, effect on crop grade: application herbicide amount 320 g/ha
Procedure, shortened: as §1

[5] = tested on: Chenopodium album; experiment: Test Example 5: herbicidal effect by foliage application, plastic box (symbol O); settings: 320 g/ha, 3 weeks after application
Procedure, shortened: as §3

[6] = tested on: rice plant; experiment: Test Example 5: effect on crop by foliage application, plastic box (symbol b); settings: 320 g/ha, 3 weeks after application
Procedure, shortened: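 Crop and weed seeds sown in spots in sterilized diluvial soil in plastic boxes and covered with about 1.5 cm soil. Plants raised in a greenhouse at 25° C. to 30° C. for foliar application.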

[7] = tested on: Setaria viridis; experiment: Test Example 4: herbicidal effect by soil treatment (symbol G)
Procedure, shortened: as §2

[8] = tested on: Digitaria ciliaris; experiment: Test Example 5: herbicidal effect by foliage application, plastic box (symbol F); settings: 320 g/ha, 3 weeks after application
Procedure, shortened: as §3

[9] = tested on: Monochoria vaginalis; experiment: Test Example 2: herbicidal activity, application during weed generation in submerged conditions (symbol C); settings: Table 23; application herbicide amount 320 g/ha; grade 0-5 by criteria of Test Example 1
Procedure, shortened: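 Seeds sown in flooded alluvial soil (4 cm water) were grown in a 25-30° C greenhouse. At the one- to two-leaf stage, diluted emulsion of compound was applied to the water surface at a predetermined rate. Effect was scored 3 weeks later.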

[10] = tested on: Veronica persica; experiment: Test Example 4: herbicidal effect by soil treatment (symbol R)
Text: Herbicidal Effect Test by Soil Treatment
Sterilized diluvial soil was placed in a plastic box having a length of 21 cm, a width of 13 cm, and a depth of 7 cm. Each of the seeds of Digitaria ciliaris, Setaria viridis, Echinochloa crus-galli var. crus-galli, Avena fatua, Alopecurus myosuroides, Lolium multiflorum Lam., Apera spica-venti, Abutilon theophrasti, Amaranthus retroflexus, Chenopodium album, Stellaria media, Galium spurium, Veronica persica, corn, soybean, rice, wheat, beet, and rapeseed was sowed in a spot-like manner and was covered with the soil of a thickness of about 1.5 cm. Subsequently, the emulsion agent of the compound present invention prepared in accordance with Formulation Example 2 was diluted with water so as to be a predetermined herbicide amount and the diluted emulsion agent was uniformly applied to the surface of the soil with a small-size spray. The plastic box was placed in a greenhouse of 25° C. to 30° C. to grow plant. 3 weeks later from the herbicide application, the effect to each plant was investigated in accordance with the criteria of Test Example 1.

[11] = tested on: Stellaria media; experiment: Test Example 4: herbicidal effect by soil treatment (symbol P)
Procedure, shortened: as §2

[12] = tested on: Abutilon theophrasti; experiment: Test Example 4: herbicidal effect by soil treatment (symbol M)
Procedure, shortened: as §2

[13] = tested on: Scirpus juncoides; experiment: Test Example 1: herbicidal activity, application before weed generation in submerged conditions (symbol B); settings: application herbicide amount 320 g/ha
Procedure, shortened: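 Pre-emergence, paddy conditions: emulsifiable formulation diluted in water, dosed onto floodwater (4 cm depth) on sowing day. Alluvial soil; weeds sown mixed; rice transplanted at 2.5-leaf stage. Greenhouse 25–30 °C, 3 wk. Score 0–5 (5 = ≥90% kill, 0 = ≤5%).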

[14] = tested on: Alopecurus myosuroides; experiment: Test Example 5: herbicidal effect by foliage application, plastic box (symbol J); settings: 320 g/ha, 3 weeks after application
Procedure, shortened: as §3

[15] = tested on: wheat; experiment: Test Example 4: effect on crop by soil treatment (symbol e); settings: for e: wheat, effect grade on crop: 320 g/ha; for e: wheat, effect on crop grade: application herbicide amount 320 g/ha
Procedure, shortened: as §1

[16] = tested on: Avena fatua; experiment: Test Example 4: herbicidal effect by soil treatment (symbol I)
Procedure, shortened: as §2

[17] = tested on: Apera spica-venti; experiment: Test Example 4: herbicidal effect by soil treatment (symbol L); settings: 320 g/ha
Procedure, shortened: as §2

[18] = application herbicide amount 320 g/ha

Row | SMILES | b: directly sowed rice plant, effect grade on crop [1] | J: Alopecurus myosuroides, herbicidal effect grade ([2]; 320 g/ha) | H: Echinochloa crus-galli var. crus-galli, herbicidal effect (criteria 0-5) [3] | d: soybean, effect grade on crop [4] | O: Chenopodium album, herbicidal effect (criteria 0-5) [5] | b: directly sowed rice plant, effect on crop (criteria 0-5) [6] | G: Setaria viridis, herbicidal effect grade ([7]; 320 g/ha) | F: Digitaria ciliaris, herbicidal effect (criteria 0-5) [8] | Herbicidal effect grade, C: Monochoria vaginalis [9] | R: Veronica persica, herbicidal effect grade ([10]; 320 g/ha) | P: Stellaria media, herbicidal effect grade ([11]; 320 g/ha) | M: Abutilon theophrasti, herbicidal effect grade ([12]; 320 g/ha) | Herbicidal effect grade, B: Scirpus juncoides [13] | J: Alopecurus myosuroides, herbicidal effect (criteria 0-5) [14] | e: wheat, effect grade on crop [15] | I: Avena fatua, herbicidal effect grade ([16]; 320 g/ha) | b: directly sowed rice plant, effect on crop grade [1] | J: Alopecurus myosuroides, herbicidal effect grade [2, 18] | H: Echinochloa crus-galli var. crus-galli, herbicidal effect grade [3] | d: soybean, effect on crop grade [4] | other results
1 | CON=C(C)CC1CC(OC(=O)CSc2ccccc2)=C(c2c(C)cc(C)cc2C)C1=O (stereo not drawn) [1-134] | 5 (Herbicidal ratio of 90% or more (almost completely withered)) | 5 (Herbicidal ratio of 90% or more (almost completely withered)) | 5 (Herbicidal ratio of 90% or more (almost completely withered)) | 0 (Herbicidal ratio of 5% or lower (almost no effect)) | 4 (Herbicidal ratio of 70% or higher and lower than 90%) | 5 (Herbicidal ratio of 90% or more (almost completely withered)) | 5 (Herbicidal ratio of 90% or more (almost completely withered)) | 5 (Herbicidal ratio of 90% or more (almost completely withered)) | 3 (Herbicidal ratio of 40% or higher and lower than 70%) | 0 (Herbicidal ratio of 5% or lower (almost no effect)) | 0 (Herbicidal ratio of 5% or lower (almost no effect)) | 3 (Herbicidal ratio of 40% or higher and lower than 70%) | 5 (Herbicidal ratio of 90% or more (almost completely withered)) | 5 (Herbicidal ratio of 90% or more (almost completely withered)) | 2 (Herbicidal ratio of 20% or higher and lower than 40%) | 2 (Herbicidal ratio of 20% or higher and lower than 40%) |  |  |  |  | 
2 | CCC(CC1CC(O)=C(c2c(C)cc(C)cc2OC)C1=O)=NOC (mixture of isomers) [13-003] |  |  |  |  |  |  |  |  | 3 (Herbicidal ratio of 40% or higher and lower than 70%) |  |  |  |  |  |  |  | 5 (Herbicidal ratio of 90% or more (almost completely withered)) | 5 (Herbicidal ratio of 90% or more (almost completely withered)) | 5 (Herbicidal ratio of 90% or more (almost completely withered)) | 0 (Herbicidal ratio of 5% or lower (almost no effect)) | O: Chenopodium album, herbicidal effect grade [5]: 0 (Herbicidal ratio of 5% or lower (almost no effect)); b: directly sowed rice plant, effect on crop grade [6]: 5 (Herbicidal ratio of 90% or more (almost completely withered)); G: Setaria viridis, herbicidal effect grade [7, 18]: 5 (Herbicidal ratio of 90% or more (almost completely withered)); F: Digitaria ciliaris, herbicidal effect grade [8]: 5 (Herbicidal ratio of 90% or more (almost completely withered)); R: Veronica persica, herbicidal effect grade [10, 18]: 0 (Herbicidal ratio of 5% or lower (almost no effect)); P: Stellaria media, herbicidal effect grade [11, 18]: 0 (Herbicidal ratio of 5% or lower (almost no effect)); M: Abutilon theophrasti, herbicidal effect grade [12, 18]: 4 (Herbicidal ratio of 70% or higher and lower than 90%); B (Scirpus juncoides) herbicidal effect grade [13]: 5 (Herbicidal ratio of 90% or more (almost completely withered)); J: Alopecurus myosuroides, herbicidal effect grade [14]: 5 (Herbicidal ratio of 90% or more (almost completely withered)); e: wheat, effect on crop grade [15]: 0 (Herbicidal ratio of 5% or lower (almost no effect)); I: Avena fatua, herbicidal effect grade [16, 18]: 1 (Herbicidal ratio of 5% or higher and lower than 20%)
3 | CON=C(CC1CC(OC(=O)N2CCOCC2)=C(c2c(C)cc(C)cc2OC)C1=O)C1CC1 (mixture of isomers) [13-005] |  |  |  |  |  |  |  |  |  |  |  |  |  |  |  |  | 1 (Herbicidal ratio of 5% or higher and lower than 20%) | 4 (Herbicidal ratio of 70% or higher and lower than 90%) | 5 (Herbicidal ratio of 90% or more (almost completely withered)) | 0 (Herbicidal ratio of 5% or lower (almost no effect)) | O: Chenopodium album, herbicidal effect grade [5]: 0 (Herbicidal ratio of 5% or lower (almost no effect)); b: directly sowed rice plant, effect on crop grade [6]: 5 (Herbicidal ratio of 90% or more (almost completely withered)); G: Setaria viridis, herbicidal effect grade [7, 18]: 0 (Herbicidal ratio of 5% or lower (almost no effect)); F: Digitaria ciliaris, herbicidal effect grade [8]: 5 (Herbicidal ratio of 90% or more (almost completely withered)); R: Veronica persica, herbicidal effect grade [10, 18]: 0 (Herbicidal ratio of 5% or lower (almost no effect)); P: Stellaria media, herbicidal effect grade [11, 18]: 0 (Herbicidal ratio of 5% or lower (almost no effect)); M: Abutilon theophrasti, herbicidal effect grade [12, 18]: 0 (Herbicidal ratio of 5% or lower (almost no effect)); B (Scirpus juncoides) herbicidal effect grade [13]: 0 (Herbicidal ratio of 5% or lower (almost no effect)); J: Alopecurus myosuroides, herbicidal effect grade [14]: 5 (Herbicidal ratio of 90% or more (almost completely withered)); e: wheat, effect on crop grade [15]: 1 (Herbicidal ratio of 5% or higher and lower than 20%); I: Avena fatua, herbicidal effect grade [16, 18]: 0 (Herbicidal ratio of 5% or lower (almost no effect))
4 | CC(CC1CC(O)=C(c2c(C)cc(C)cc2C)C1=O)=NOCc1ccc(F)cc1 (stereo not drawn) [1-136] | 2 (Herbicidal ratio of 20% or higher and lower than 40%) | 5 (Herbicidal ratio of 90% or more (almost completely withered)) | 5 (Herbicidal ratio of 90% or more (almost completely withered)) | 0 (Herbicidal ratio of 5% or lower (almost no effect)) | 0 (Herbicidal ratio of 5% or lower (almost no effect)) | 5 (Herbicidal ratio of 90% or more (almost completely withered)) | 5 (Herbicidal ratio of 90% or more (almost completely withered)) | 5 (Herbicidal ratio of 90% or more (almost completely withered)) | 5 (Herbicidal ratio of 90% or more (almost completely withered)) | 0 (Herbicidal ratio of 5% or lower (almost no effect)) | 0 (Herbicidal ratio of 5% or lower (almost no effect)) |  | 5 (Herbicidal ratio of 90% or more (almost completely withered)) | 5 (Herbicidal ratio of 90% or more (almost completely withered)) | 3 (Herbicidal ratio of 40% or higher and lower than 70%) | 3 (Herbicidal ratio of 40% or higher and lower than 70%) |  |  |  |  | 
5 | CON=C(C)CC1CC(OC(=O)CN(C)C(=O)c2ccccc2)=C(c2c(C)cc(C)cc2C)C1=O (stereo not drawn) [1-139] | 5 (Herbicidal ratio of 90% or more (almost completely withered)) | 5 (Herbicidal ratio of 90% or more (almost completely withered)) | 5 (Herbicidal ratio of 90% or more (almost completely withered)) | 0 (Herbicidal ratio of 5% or lower (almost no effect)) | 1 (Herbicidal ratio of 5% or higher and lower than 20%) | 5 (Herbicidal ratio of 90% or more (almost completely withered)) | 5 (Herbicidal ratio of 90% or more (almost completely withered)) | 5 (Herbicidal ratio of 90% or more (almost completely withered)) | 1 (Herbicidal ratio of 5% or higher and lower than 20%) |  | 0 (Herbicidal ratio of 5% or lower (almost no effect)) | 4 (Herbicidal ratio of 70% or higher and lower than 90%) | 4 (Herbicidal ratio of 70% or higher and lower than 90%) | 5 (Herbicidal ratio of 90% or more (almost completely withered)) | 3 (Herbicidal ratio of 40% or higher and lower than 70%) | 4 (Herbicidal ratio of 70% or higher and lower than 90%) |  |  |  |  | L: Apera spica-venti, herbicidal effect grade [17]: 5 (Herbicidal ratio of 90% or more (almost completely withered))
